Assay results: US20130116291A1, “ASSOCIATION OF XANTHINE OXIDASE INHIBITORS AND STATINS AND USE THEREOF” (Menarini International Operations Luxembourg S.A., priority 2010, published 2013)

Tested on: Wistar rats subjected to a cholesterol-rich (2%) diet
Experiment: Hypocholesterolemic activity in rats on a cholesterol-rich diet (plasma total cholesterol)
Type: in vivo, rat
Details: for Diminution of plasma total cholesterol in rats: cholesterol-rich (2%) diet
Experimental: Plasma levels of total cholesterol were measured with a standard colorimetric enzymatic method. […] Plasma levels of total cholesterol were determined at one-week intervals. Blood was collected from a tail vein.

## CC(C)c1c(C(=O)Nc2ccccc2)c(-c2ccccc2)c(-c2ccc(F)cc2)n1CC[C@@H](O)C[C@@H](O)CC(=O)O [Atorvastatin, atorvastatin]
Doses of 5 and 10 mg/kg, starting from the first week of treatment
  Reduction of the cholesterolemia values (in words): significant and dose-dependent reduction
Highest dose (10 mg/kg, as calcium salt, per os daily), peak at 2 weeks, constant in the successive weeks
  Maximum reduction of the cholesterolemia values: 80%

## Cc1nc(-c2ccc(OCC(C)C)c(C#N)c2)sc1C(=O)O [Febuxostat, febuxostat]
1 mg/Kg orally by gavage once per day for 4 weeks
  Diminution of plasma total cholesterol in rats: No diminution
5 mg/Kg orally by gavage once per day for 4 weeks
  Diminution of plasma total cholesterol in rats: No diminution
[…] orally by gavage once per day for 4 weeks
  Diminution of plasma total cholesterol in rats: No diminution
Highest dose, 5 mg/kg per day, per os, Wistar rats, cholesterol-rich diet
  Effect on cholesterol levels in the 4 weeks of observation: did not significantly modify
